# Data taken from patent US10662161B2, “Pyrimidines and uses thereof” (Regents of the University of Minnesota, priority 2017, dated 2020).
# Values joined by “and” are separate entries in the source; they are usually repeats but may differ in a detail not shown here. Equal entries are not always repeated. “Also recorded” adds a separate entry of the source. Structures can show the parent of a compound that is named as a salt.
# Test system: CD80 expression in the monocytes (human whole blood)
# Assay: Flow-cytometric immunostimulation: CD80 upregulation in human whole blood
# Type: cell-based
# Details: 16 h, CD80-PE-Cy7 MFI
# Method: Flow-Cytometric Immunostimulation Experiments:
# Cell surface marker upregulation was determined by flow cytometry using protocols published by us previously. Briefly, heparin-anticoagulated whole blood samples were obtained by venipuncture from healthy human volunteers with informed consent and as per guidelines approved by the University of Minnesota Human Subjects Experimentation Committee. Serial dilutions of selected compounds were performed using a Bio-Tek Precision 2000 XS liquid handler in sterile 96-well polypropylene plates, to which were added 100 μL aliquots of anticoagulated whole human blood. The plates were incubated at 37° C. for 16 h. Negative (DMSO) controls were included in each experiment. The following fluorochrome-conjugated antibodies were used: CD14-FITC, CD40-APC, CD80-PE-Cy7, CD86-V450 (Becton-Dickinson Biosciences, San Jose, Calif.). Following incubation, 2.5 μg of each antibody was added to wells with a liquid handler, and incubated at 4° C. in the dark for 60 min. Following staining, erythrocytes were lysed and leukocytes fixed by mixing 200 μL of the samples in 800 μL pre-warmed Whole Blood Lyse/Fix Buffer (Becton-Dickinson Biosciences, San Jose, Calif.) in 96 deep-well plates. After washing the cells twice at 300 g for 10 minutes in RPMI, the cells were transferred to a 96-well plate. […]
row,SMILES,activity in upregulating CD80
1,"CCCCNc1nc(N)nc(C)c1I [Compound 4b, N^4-Butyl-5-iodo-6-methylpyrimidine-2,4-diamine]",1.5 μg/mL and 5 μM

# Biological target: T1, human TLR8 (Homo sapiens, UniProt Q9NR97)
# T1 construct: expressed in transfected cells; host or cells: HEK293
# T1 sequence (Q9NR97 27-1041): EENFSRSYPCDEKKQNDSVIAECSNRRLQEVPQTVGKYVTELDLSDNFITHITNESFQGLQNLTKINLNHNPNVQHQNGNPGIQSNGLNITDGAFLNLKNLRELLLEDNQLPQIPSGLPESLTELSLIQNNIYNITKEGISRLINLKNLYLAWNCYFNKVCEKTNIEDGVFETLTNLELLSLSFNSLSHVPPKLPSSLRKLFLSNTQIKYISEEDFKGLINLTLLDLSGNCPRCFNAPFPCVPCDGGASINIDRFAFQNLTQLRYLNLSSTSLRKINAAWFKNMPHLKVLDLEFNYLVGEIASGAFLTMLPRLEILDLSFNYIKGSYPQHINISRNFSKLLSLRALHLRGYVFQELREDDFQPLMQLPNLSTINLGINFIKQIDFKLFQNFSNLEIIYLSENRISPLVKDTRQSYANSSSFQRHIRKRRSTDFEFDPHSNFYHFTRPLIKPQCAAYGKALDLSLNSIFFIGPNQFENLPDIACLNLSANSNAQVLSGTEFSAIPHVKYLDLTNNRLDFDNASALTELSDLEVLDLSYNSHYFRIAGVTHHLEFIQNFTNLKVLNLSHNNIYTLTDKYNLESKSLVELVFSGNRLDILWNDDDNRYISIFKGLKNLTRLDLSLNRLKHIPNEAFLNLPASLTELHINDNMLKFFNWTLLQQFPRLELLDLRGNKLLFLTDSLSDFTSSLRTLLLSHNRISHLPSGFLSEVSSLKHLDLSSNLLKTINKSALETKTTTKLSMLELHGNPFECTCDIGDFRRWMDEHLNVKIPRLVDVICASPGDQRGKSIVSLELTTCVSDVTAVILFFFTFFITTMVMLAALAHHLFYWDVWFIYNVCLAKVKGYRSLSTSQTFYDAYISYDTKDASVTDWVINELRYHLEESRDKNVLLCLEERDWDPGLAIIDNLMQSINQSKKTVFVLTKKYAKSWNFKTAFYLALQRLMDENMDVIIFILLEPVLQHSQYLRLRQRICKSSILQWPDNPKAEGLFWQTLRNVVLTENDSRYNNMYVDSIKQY
# Assay: Human TLR8-specific reporter gene assay (NF-κB induction, sAP) in HEK293 cells
# Type: cell-based
# Details: primary screen, HEK293 hTLR8 reporter cells; read-out: EC50, TLR8 agonistic activity (hTLR8-specific NF-κB induction)
# Text: Human TLR8-Specific Reporter Gene Assays (NF-κB Induction), and TLR-2/-3/-4/-5/-7/-9 Counter-Screens:
# The induction of NF-κB was quantified using human TLR-2/-3/-4/-5/-7/-8/-9-specific, rapid-throughput, liquid handler-assisted reporter gene assays as previously described by us.^31,25, 32,33 HEK293 cells stably co-transfected with the appropriate hTLR and secreted alkaline phosphatase (sAP) were maintained in HEK-Blue™ Selection medium. Stable expression of secreted alkaline phosphatase (sAP) under control of NF-κB/AP-1 promoters is inducible by appropriate TLR agonists, and extracellular sAP in the supernatant is proportional to NF-κB induction. Reporter cells were incubated at a density of ˜10^5 cells/ml in a volume of 80 μl/well, in 384-well, flat-bottomed, cell culture-treated microtiter plates in the presence of graded concentrations of stimuli. sAP was assayed spectrophotometrically using an alkaline phosphatase-specific chromogen (present in HEK-detection medium as supplied by InvivoGen) at 620 nm.
row,SMILES,EC50
1,"CCCCNc1cc(C)nc(N)n1 [Compound 15, N^4-Butyl-6-methylpyrimidine-2,4-diamine]",22000 nM
2,"CCCCNc1ccnc(N)n1 [Compound 16, N^4-Butylpyrimidine-2,4-diamine]",73200 nM
3,"CCCCNc1nc(N)nc(C)c1CCCN.Cl.Cl [Compound 27a, 5-(3-Aminopropyl)-N^4-butyl-6-methylpyrimidine-2,4-diamine dihydrochloride]",2310 nM
4,"CCCCNc1nc(N)nc(-c2ccccc2)c1CCCCN.Cl.Cl [Compound 32b, 5-(4-Aminobutyl)-N^4-butyl-6-phenylpyrimidine-2,4-diamine dihydrochloride]",2700 nM
5,"CCCCNc1nc(N)nc(-c2ccccc2)c1CCCCCN [Compound 32c, 5-(5-Aminopentyl)-N^4-butyl-6-phenylpyrimidine-2,4-diamine dihydrochloride]",2350 nM

# Same assay, conditions: primary screen, reporter gene assay
row,SMILES,TLR8-agonistic activity (in words)
1,"CCCCN(C)c1nc(N)nc(C)c1I [Compound 4e, N^4-Butyl-5-iodo-N^4,6-dimethylpyrimidine-2,4-diamine]",abrogated activity
2,"CCCCN(Cc1ccccc1)c1nc(N)nc(C)c1I [Compound 4f, N^4-Benzyl-N^4-butyl-5-iodo-6-methylpyrimidine-2,4-diamine]",abrogated activity
3,"CCCCOc1nc(N)nc(C)c1I [Compound 4g, 4-Butoxy-5-iodo-6-methylpyrimidin-2-amine]",inactive
4,"CCCCSc1nc(N)nc(C)c1I [Compound 4h, 4-(Butylthio)-5-iodo-6-methylpyrimidin-2-amine]",inactive
5,"CCCC#Cc1cc(C)nc(N)n1 [Compound 4i, 4-Methyl-6-(pent-1-yn-1-yl)pyrimidin-2-amine]",inactive
6,"CCCCCc1cc(C)nc(N)n1 [Compound 4j, 4-Methyl-6-pentylpyrimidin-2-amine]",inactive
7,"CCCCCc1nc(N)nc(C)c1I [Compound 4k, 5-iodo-4-methyl-6-pentylpyrimidin-2-amine]",inactive
8,"CCCCNc1nc(N)nc(C)c1Cl [Compound 6a, N^4-Butyl-5-chloro-6-methylpyrimidine-2,4-diamine]",substantial losses in potency
9,"CCCCNc1nc(N)nc(C)c1Br [Compound 6b, 5-Bromo-N^4-butyl-6-methylpyrimidine-2,4-diamine]",substantial losses in potency
10,"CCCCNc1nc(N)nc(C)c1F [Compound 6c, N^4-Butyl-5-fluoro-6-methylpyrimidine-2,4-diamine]",substantial losses in potency
11,"CCCCNc1nc(N)ncc1I [Compound 17, N^4-Butyl-5-iodopyrimidine-2,4-diamine]",entirely without measurable TLR8-agonistic activity
12,"CCCCNc1nc(N)nc(C)c1Cc1ccccc1 [Compound 24, 5-Benzyl-MN-butyl-6-methylpyrimidine-2,4-diamine]","diminution of activity, exhibiting greatly attenuated area-under-the curve"
13,"CCCCNc1nc(N)nc(C)c1CCCCCN.Cl.Cl [Compound 27c, 5-(5-Aminopentyl)-MN-butyl-6-methylpyrimidine-2,4-diamine dihydrochloride]",appeared to plateau
14,"CCCCNc1nc(N)nc(-c2ccccc2)c1I [Compound 29, N^4-Butyl-5-iodo-6-phenylpyrimidine-2,4-diamine]",inactive

# Same assay, conditions: reference printed as 4b (22 μM)
row,SMILES,fold increase in TLR8 potency relative to that of 4b (22 μM)
1,"CCCCNc1nc(N)nc(C)c1CCCN.Cl.Cl [Compound 27a, 5-(3-Aminopropyl)-N^4-butyl-6-methylpyrimidine-2,4-diamine dihydrochloride]",increased nearly ten-fold

# Same assay, conditions: relative to 4b
row,SMILES,fold less active than 4b (TLR8 EC50)
1,"CCCCNc1cc(C)nc(N)n1 [Compound 15, N^4-Butyl-6-methylpyrimidine-2,4-diamine]",ca. fourteen-fold less active

# Same assay, conditions: reporter gene assays with TLR-2/-3/-4/-5/-7/-9 counter-screens
row,SMILES,TLR8 specificity/selectivity (in words)
1,"CCCCNc1nc(N)nc(C)c1I [Compound 4b, N^4-Butyl-5-iodo-6-methylpyrimidine-2,4-diamine]",pure TLR8 agonist; also recorded: bona fide TLR8-specific agonist

# Test system: human peripheral blood mononuclear cells (hPBMC)
# Assay: Multiplexed immunoassays for cytokine and chemokine induction in human PBMCs
# Type: cell-based
# Details: 41-analyte multiplexed immunoassay
# Method: Immunoassays for Cytokines.
# Fresh human peripheral blood mononuclear cells (hPBMC) were isolated from human blood obtained by venipuncture in Cell Preparation Tubes (CPT, Beckton-Dickinson) with informed consent and as per guidelines approved by the University of Minnesota Human Subjects Experimentation Committee. Aliquots of PBMCs (10^5 cells in 100 µL/well) were stimulated for 16 h with graded concentrations of test compounds. Supernatants were isolated by centrifugation, and were assayed in duplicates using analyte-specific multiplexed cytokine/chemokine bead array assays (HCYTMAG-60K-PX29 MILLIPLEX MAP Human Cytokine/Chemokine Magnetic Bead Panel, EMD Millipore, Billerica, Mass.) as reported by us previously.^19 The following analytes were quantified: sCD40L, VEGF, TNF-β, TNF-α. TGF-α, RANTES, PDGF-AB/BB, PDGF-AA, MIP-1β, MIP-1α, MDC (CCL22), MCP-3, MCP-1, IP-10, IL-17A, IL-15, IL-13, IL-12 (p70), IL-12 (p40). IL-10, IL-9, IL-8, IL-7, IL-6, IL-5, IL-4, IL-3, IL-2, IL-1 ra, IL-1β, IL-1α, IFN-γ, IFN-α2, GRO, GM-CSF, G-CSF, fractalkine, Fit-3 ligand, FGF-2, eotaxin, EGF.
row,SMILES,cytokine and chemokine induction (in words)
1,"CCCCNc1nc(N)nc(-c2ccccc2)c1CCCCN.Cl.Cl [Compound 32b, 5-(4-Aminobutyl)-N^4-butyl-6-phenylpyrimidine-2,4-diamine dihydrochloride]",significantly weaker
